From ChEMBL document CHEMBL2384993, “Multidimensional optimization of promising antitumor xanthone derivatives” (Bioorg Med Chem, 2013)
In brackets after ≈: the same amount, converted by molar mass.

Assays:
[1] = Growth inhibition of human A375-C5 cells after 48 hrs by sulforhodamine B assay; type: functional; conditions: A375-C5, 48 h
NCI-H460 = assay: Growth inhibition of human NCI-H460 cells after 48 hrs by sulforhodamine B assay; type: functional; conditions: NCI-H460, 48 h
[2] = Micelles-buffer partition coefficient, log K of the compound after 30 mins at pH 7.4 by UV-vis spectrophotometric analysis; type: physicochemical; conditions: pH 7.4, 0.5 h
MCF7 = assay: Growth inhibition of human MCF7 cells after 48 hrs by sulforhodamine B assay; type: functional; conditions: MCF7, 48 h
HL-60 [3] = assay: Growth inhibition of human HL60 cells after 48 hrs by sulforhodamine B assay; type: functional; conditions: HL-60, 48 h
[4] = Thermodynamic solubility of the compound after 24 hrs at pH 7.4 by spectrophotometric analysis; type: physicochemical; conditions: buffer, read-out: Therm_solubility
[5] = Liposomes-buffer partition coefficient, log K of the compound after 30 mins at pH 7.4 by UV-vis spectrophotometric analysis; type: physicochemical; conditions: artificial membrane, pH 7.4, 0.5 h
HL-60 [6] = assay: Cytotoxicity against human HL60 cells after 24 to 72 hrs by trypan blue exclusion assay; type: functional, cell-based

Row | GI50 (NCI-H460) [µM] | log K [2] | GI50 (MCF7) [µM] | GI50 (HL-60 [3]) [µM] | solubility thermodynamic at 24 h [4] [µM] | log K [5] | SMILES | GI50 [1] [µM] | IC50 (HL-60 [6]) [µM]
1 | 59.1 | 3.76 | 82.5 | 57 | 0.62 (≈ 0.194 µg/mL) | 3.32 | CC1(C)CCc2cc3c(=O)c4ccc(O)cc4oc3c(O)c2O1 | 40.7 | 
2 | > 75 | 3.83 | > 75 |  |  | 3.88 | COc1cc2oc3c(OC)c4c(cc3c(=O)c2cc1OC)OC(C)(C)CC4 | > 75 | 
3 | > 100 | 3.88 | > 100 | 72.3 |  |  | COc1cc2oc3c(OC)c4c(cc3c(=O)c2cc1OC)CCC(C)(C)O4 | > 100 | 
4 | > 150 | 3.49 | > 150 | 8.3 |  | 3.43 | COc1c2c(cc3c(=O)c4ccc(O)cc4oc13)CCC(C)(C)O2 | > 150 | 
5 | 41.1 | 3.58 |  | 27.3 | 0.23 (≈ 0.0751 µg/mL) | 3.53 | COc1cccc2c(=O)c3cc4c(c(O)c3oc12)OC(C)(C)CC4 | 68 | 
6 | > 150 | 4.39 | > 150 | 9 | < 0.1 |  | CC1(C)CCc2cc3c(=O)c4cc(Cl)ccc4oc3c(O)c2O1 | > 150 | 
7 | 26.8 |  | 34.3 | 9.2 |  |  | CCN(CC)c1ccc2c(=O)c3cc4c(c(OC)c3oc2c1)C=CC(C)(C)O4 | 21.9 | 
8 | > 150 | 4.34 | > 150 | 14.1 |  |  | COc1c2c(cc3c(=O)c4cc(Cl)ccc4oc13)OC(C)(C)C=C2 | > 150 | 
9 | > 150 | 3.59 | > 150 | 8.8 |  | 3.6 | COc1c2c(cc3c(=O)c4ccccc4oc13)CCC(C)(C)O2 | > 150 | 
10 | > 50 | 4.29 | > 50 | > 50 |  | 4.32 | COc1c2c(cc3c(=O)c4cc(C)ccc4oc13)OC(C)(C)C=C2 | > 50 | 
11 | > 150 | 4.21 | > 150 |  |  |  | COc1ccc2oc3c(OC)c4c(cc3c(=O)c2c1)OC(C)(C)C=C4 | > 150 | 
12 | 40.3 | 3.28 | 39.7 | 23.4 | 0.4 (≈ 0.119 µg/mL) | 3.35 | CC1(C)CCc2cc3c(=O)c4ccccc4oc3c(O)c2O1 [DIHYDRO-12-HYDROXY-2,2-DIMETHYL-2H,6H-PYRANO[3,2-B]XANTHEN-6-ONE] | 28.9 | 6
13 | 0.0641 |  | 0.0654 | 0.028 |  |  | COc1cccc2c1C(=O)c1c(O)c3c(c(O)c1C2=O)C[C@@](O)(C(=O)CO)C[C@@H]3O[C@H]1C[C@H](N)[C@H](O)[C@H](C)O1 [DOXORUBICIN] | 0.145 | 
14 | > 150 | 3.35 | > 150 | 23.9 | < 0.1 | 3.25 | COc1ccc2oc3c(O)c4c(cc3c(=O)c2c1)CCC(C)(C)O4 | > 150 | 
15 | 48.1 | 3.92 | > 150 | 12.5 | < 0.1 | 3.86 | Cc1ccc2oc3c(O)c4c(cc3c(=O)c2c1)CCC(C)(C)O4 | 17.6 | 
16 | > 75 | 4.41 | > 75 | 48.4 |  | 4.48 | COc1c2c(cc3c(=O)c4cc(Cl)ccc4oc13)OC(C)(C)CC2 | > 75 | 
17 | 13.7 | 4.7 | 14.5 | 14.4 |  | 4.62 | CCN(CC)c1ccc2c(=O)c3cc4c(c(OC)c3oc2c1)CCC(C)(C)O4 | 19.6 | 
18 | 30.9 | 4.01 | 31.8 | 5.14 |  | 4.02 | COc1c2c(cc3c(=O)c4cc(C)ccc4oc13)CCC(C)(C)O2 | 29.7 | 
19 | 34.9 | 3.9 | 36.9 | 18.8 |  |  | COc1c2c(cc3c(=O)c4ccc(O)cc4oc13)OC(C)(C)C=C2 | 27.1 | 
